Activity calls are given as the source filed them. No cut-off for these calls is given here.
How the values were obtained:
[1] = molecular target: MAP/microtubule affinity-regulating kinase 3 (Homo sapiens) (UniProt P27448); assay: Inhibition of MARK3 (unknown origin) assessed as residual enzyme activity at 1 uM relative to untreated control
[2] = molecular target: T1, TGF-beta receptor type-1 (Homo sapiens) (UniProt P36897); assay: Inhibition of ALK5 in serum starved human HeLa cells assessed as reduction in TGF-beta-induced SMAD2/3 nuclear transaction at 10 uM pre-incubated for 30 mins before TGF-beta stimulation for 30 mins by immunofluorescence analysis; format: cell-based
T1 sequence (whole entry): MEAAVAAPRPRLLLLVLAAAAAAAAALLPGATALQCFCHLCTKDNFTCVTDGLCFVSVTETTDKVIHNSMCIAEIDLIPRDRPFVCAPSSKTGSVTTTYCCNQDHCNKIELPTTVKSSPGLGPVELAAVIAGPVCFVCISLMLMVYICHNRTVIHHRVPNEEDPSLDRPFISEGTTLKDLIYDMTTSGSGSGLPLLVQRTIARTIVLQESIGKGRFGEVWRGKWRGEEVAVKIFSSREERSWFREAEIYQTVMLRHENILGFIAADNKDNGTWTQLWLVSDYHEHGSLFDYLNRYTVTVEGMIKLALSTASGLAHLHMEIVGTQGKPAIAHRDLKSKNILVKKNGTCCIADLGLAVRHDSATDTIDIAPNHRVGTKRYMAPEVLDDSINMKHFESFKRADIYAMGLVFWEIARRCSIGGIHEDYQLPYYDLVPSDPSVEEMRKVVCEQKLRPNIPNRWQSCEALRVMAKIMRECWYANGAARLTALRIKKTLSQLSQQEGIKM

[3] = molecular target: Aurora kinase B (Homo sapiens) (UniProt Q96GD4); assay: Inhibition of Aurora B (unknown origin) assessed as residual enzyme activity at 1 uM relative to untreated control
[4] = molecular target: T1, TGF-beta receptor type-1 (Homo sapiens); conditions: HeLa, at 1 µM
Description: Inhibition of ALK5 in serum starved human HeLa cells assessed as reduction in TGF-beta-induced SMAD2/3 nuclear transaction at 1 uM pre-incubated for 30 mins before TGF-beta stimulation for 30 mins by immunofluorescence analysis

[5] = molecular target: Serine/threonine-protein kinase N2 (Homo sapiens) (UniProt Q16513); assay: Inhibition of PRK2 (unknown origin) assessed as residual enzyme activity at 1 uM relative to untreated control
[6] = molecular target: Homeodomain-interacting protein kinase 2 (Homo sapiens) (UniProt Q9H2X6); assay: Inhibition of HIPK2 (unknown origin) assessed as residual enzyme activity at 1 uM relative to untreated control
[7] = molecular target: High affinity nerve growth factor receptor (Homo sapiens) (UniProt P04629); assay: Inhibition of TRKA (unknown origin) assessed as residual enzyme activity at 1 uM relative to untreated control
[8] = molecular target: Calcium/calmodulin-dependent protein kinase kinase 2 (Homo sapiens) (UniProt Q96RR4); assay: Inhibition of CAMKKbeta (unknown origin) assessed as residual enzyme activity at 1 uM relative to untreated control
[9] = test system: K562; assay: Cytotoxicity against human K562 cells assessed as decrease in cell proliferation after 72 hrs by calcein AM staining-based assay; format: functional; conditions: K562, 72 h
[10] = molecular target: Serine/threonine-protein kinase PAK 4 (Homo sapiens) (UniProt O96013); assay: Inhibition of PAK4 (unknown origin) assessed as residual enzyme activity at 1 uM relative to untreated control
[11] = molecular target: Ribosomal protein S6 kinase alpha-5 (Homo sapiens) (UniProt O75582); assay: Inhibition of MSK1 (unknown origin) assessed as residual enzyme activity at 1 uM relative to untreated control
Chain of Ribosomal protein S6 kinase alpha-5 (Homo sapiens) (O75582 whole entry, looked up): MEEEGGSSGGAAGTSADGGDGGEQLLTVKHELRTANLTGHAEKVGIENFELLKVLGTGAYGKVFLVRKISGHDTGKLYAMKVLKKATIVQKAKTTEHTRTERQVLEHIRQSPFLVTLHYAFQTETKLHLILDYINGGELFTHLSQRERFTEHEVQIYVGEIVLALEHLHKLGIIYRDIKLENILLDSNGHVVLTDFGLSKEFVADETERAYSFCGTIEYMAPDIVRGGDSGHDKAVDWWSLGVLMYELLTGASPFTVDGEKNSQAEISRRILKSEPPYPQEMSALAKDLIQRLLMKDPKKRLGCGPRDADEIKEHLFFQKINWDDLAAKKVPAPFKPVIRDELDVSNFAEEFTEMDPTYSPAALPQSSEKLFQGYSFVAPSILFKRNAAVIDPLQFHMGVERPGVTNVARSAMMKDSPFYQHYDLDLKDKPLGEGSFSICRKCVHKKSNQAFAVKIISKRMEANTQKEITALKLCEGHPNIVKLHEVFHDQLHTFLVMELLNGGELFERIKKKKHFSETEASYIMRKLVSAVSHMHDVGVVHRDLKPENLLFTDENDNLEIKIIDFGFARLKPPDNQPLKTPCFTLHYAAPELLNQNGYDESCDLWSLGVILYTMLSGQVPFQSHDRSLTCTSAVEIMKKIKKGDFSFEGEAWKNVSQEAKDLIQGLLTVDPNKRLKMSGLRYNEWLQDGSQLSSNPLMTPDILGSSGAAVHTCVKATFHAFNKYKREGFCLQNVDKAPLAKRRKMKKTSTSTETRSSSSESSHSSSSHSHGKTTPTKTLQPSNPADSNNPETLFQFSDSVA

[12] = molecular target: Tyrosine-protein kinase SYK (Homo sapiens) (UniProt P43405); assay: Inhibition of SYK (unknown origin) assessed as residual enzyme activity at 1 uM relative to untreated control
[13] = molecular target: Dual specificity tyrosine-phosphorylation-regulated kinase 1A (Homo sapiens) (UniProt Q13627); assay: Inhibition of DYRK1A (unknown origin) assessed as residual enzyme activity at 1 uM relative to untreated control
[14] = molecular target: Mitogen-activated protein kinase 8 (Homo sapiens) (UniProt P45983); assay: Inhibition of JNK1 (unknown origin) assessed as residual enzyme activity at 1 uM relative to untreated control
Chain of Mitogen-activated protein kinase 8 (Homo sapiens) (P45983 whole entry): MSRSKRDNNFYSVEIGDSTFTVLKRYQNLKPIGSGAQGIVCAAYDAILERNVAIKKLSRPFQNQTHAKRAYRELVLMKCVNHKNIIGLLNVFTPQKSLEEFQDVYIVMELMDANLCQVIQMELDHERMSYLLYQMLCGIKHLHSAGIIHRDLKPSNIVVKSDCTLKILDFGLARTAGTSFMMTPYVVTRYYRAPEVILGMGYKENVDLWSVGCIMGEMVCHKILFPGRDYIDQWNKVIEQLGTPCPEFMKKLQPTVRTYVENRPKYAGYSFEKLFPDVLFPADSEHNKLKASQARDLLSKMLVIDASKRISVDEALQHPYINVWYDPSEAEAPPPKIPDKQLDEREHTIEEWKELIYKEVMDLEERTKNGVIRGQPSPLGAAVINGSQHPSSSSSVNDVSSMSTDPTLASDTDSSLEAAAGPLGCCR

[15] = molecular target: Serine/threonine-protein kinase PLK1 (Homo sapiens) (UniProt P53350); assay: Inhibition of PLK1 (unknown origin) assessed as residual enzyme activity at 1 uM relative to untreated control
[16] = molecular target: Rho-associated protein kinase 2 (Homo sapiens) (UniProt O75116); assay: Inhibition of ROCK2 (unknown origin) assessed as residual enzyme activity at 1 uM relative to untreated control
[17] = molecular target: Cyclin-dependent kinase 2/cyclin E1 (Homo sapiens, UniProt P24941); assay: Inhibition of human CDK2/cyclin E expressed in Sf9 insect cells using histone H1 as substrate in presence of [gamma-33P]ATP; format: cell-based
[18] = molecular target: Ephrin type-A receptor 2 (Homo sapiens) (UniProt P29317); assay: Inhibition of EPHA2 (unknown origin) assessed as residual enzyme activity at 1 uM relative to untreated control
Chain of Ephrin type-A receptor 2 (Homo sapiens) (P29317 whole entry): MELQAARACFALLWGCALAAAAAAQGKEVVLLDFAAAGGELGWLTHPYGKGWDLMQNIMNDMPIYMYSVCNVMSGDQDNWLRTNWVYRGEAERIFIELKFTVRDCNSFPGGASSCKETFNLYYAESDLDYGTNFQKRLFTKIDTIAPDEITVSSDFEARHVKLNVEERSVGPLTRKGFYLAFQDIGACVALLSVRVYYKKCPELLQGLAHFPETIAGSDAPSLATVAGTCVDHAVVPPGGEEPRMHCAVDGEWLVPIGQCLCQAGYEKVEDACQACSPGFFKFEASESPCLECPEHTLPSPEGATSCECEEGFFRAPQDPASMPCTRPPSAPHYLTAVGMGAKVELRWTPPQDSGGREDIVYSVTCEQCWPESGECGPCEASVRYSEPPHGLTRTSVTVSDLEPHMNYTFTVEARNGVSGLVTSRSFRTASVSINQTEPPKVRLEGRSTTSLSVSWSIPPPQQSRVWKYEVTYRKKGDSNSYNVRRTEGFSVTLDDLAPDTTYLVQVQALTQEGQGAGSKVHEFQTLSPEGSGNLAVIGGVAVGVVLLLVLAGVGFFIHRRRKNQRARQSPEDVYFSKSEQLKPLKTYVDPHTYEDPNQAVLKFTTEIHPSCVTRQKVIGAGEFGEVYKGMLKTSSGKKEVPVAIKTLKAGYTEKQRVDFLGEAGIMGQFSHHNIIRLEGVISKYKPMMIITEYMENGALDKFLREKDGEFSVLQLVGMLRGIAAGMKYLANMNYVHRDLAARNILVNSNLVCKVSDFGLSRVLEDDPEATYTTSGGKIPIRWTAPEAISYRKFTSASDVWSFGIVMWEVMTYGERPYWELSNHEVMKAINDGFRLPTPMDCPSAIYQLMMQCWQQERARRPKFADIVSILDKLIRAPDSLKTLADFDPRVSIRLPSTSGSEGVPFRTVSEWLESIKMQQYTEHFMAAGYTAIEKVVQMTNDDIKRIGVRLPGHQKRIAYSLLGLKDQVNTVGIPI

[19] = molecular target: Serine/threonine-protein kinase D1 (Homo sapiens) (UniProt Q15139); assay: Inhibition of PKD1 (unknown origin) assessed as residual enzyme activity at 1 uM relative to untreated control
Chain of Serine/threonine-protein kinase D1 (Homo sapiens) (Q15139 whole entry): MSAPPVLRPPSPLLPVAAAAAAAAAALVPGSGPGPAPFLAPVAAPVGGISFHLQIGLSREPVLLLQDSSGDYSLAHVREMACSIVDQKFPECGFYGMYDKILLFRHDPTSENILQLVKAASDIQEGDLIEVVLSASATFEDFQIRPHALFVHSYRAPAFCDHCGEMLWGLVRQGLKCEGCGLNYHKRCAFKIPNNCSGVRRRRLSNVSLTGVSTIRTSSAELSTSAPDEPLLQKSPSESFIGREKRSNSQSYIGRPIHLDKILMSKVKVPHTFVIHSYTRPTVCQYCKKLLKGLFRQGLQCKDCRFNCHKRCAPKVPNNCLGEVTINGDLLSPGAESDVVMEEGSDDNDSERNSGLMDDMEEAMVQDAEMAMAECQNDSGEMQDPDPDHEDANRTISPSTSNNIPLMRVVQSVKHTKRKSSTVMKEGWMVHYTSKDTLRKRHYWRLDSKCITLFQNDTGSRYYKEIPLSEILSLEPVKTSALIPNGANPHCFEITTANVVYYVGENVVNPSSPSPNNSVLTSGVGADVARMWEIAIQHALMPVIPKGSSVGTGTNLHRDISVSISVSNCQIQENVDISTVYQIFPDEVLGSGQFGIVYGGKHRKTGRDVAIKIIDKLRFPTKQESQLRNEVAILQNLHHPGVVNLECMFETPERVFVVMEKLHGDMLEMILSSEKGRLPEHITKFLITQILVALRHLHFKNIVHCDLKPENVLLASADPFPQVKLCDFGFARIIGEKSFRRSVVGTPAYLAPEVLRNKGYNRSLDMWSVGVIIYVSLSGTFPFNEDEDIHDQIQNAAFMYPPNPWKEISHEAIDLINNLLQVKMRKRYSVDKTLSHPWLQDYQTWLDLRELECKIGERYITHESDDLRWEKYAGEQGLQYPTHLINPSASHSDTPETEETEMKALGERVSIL

[20] = molecular target: Eukaryotic elongation factor 2 kinase (Homo sapiens) (UniProt O00418); assay: Inhibition of EF2K (unknown origin) assessed as residual enzyme activity at 1 uM relative to untreated control
[21] = molecular target: Serine/threonine-protein kinase Nek6 (Homo sapiens) (UniProt Q9HC98); assay: Inhibition of NEK6 (unknown origin) assessed as residual enzyme activity at 1 uM relative to untreated control
Chain of Serine/threonine-protein kinase Nek6 (Homo sapiens) (Q9HC98 whole entry): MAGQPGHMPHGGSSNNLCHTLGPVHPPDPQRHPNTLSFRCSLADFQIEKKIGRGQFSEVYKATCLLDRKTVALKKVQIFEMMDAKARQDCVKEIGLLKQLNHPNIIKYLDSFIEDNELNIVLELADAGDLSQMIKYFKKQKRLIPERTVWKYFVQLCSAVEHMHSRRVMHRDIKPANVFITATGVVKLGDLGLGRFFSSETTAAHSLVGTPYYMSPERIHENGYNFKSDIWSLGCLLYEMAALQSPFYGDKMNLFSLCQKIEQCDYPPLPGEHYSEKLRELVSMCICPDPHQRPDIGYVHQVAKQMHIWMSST

[22] = molecular target: Calcium/calmodulin-dependent protein kinase type 1 (Homo sapiens) (UniProt Q14012); assay: Inhibition of CAMK1 (unknown origin) assessed as residual enzyme activity at 1 uM relative to untreated control
Chain of Calcium/calmodulin-dependent protein kinase type 1 (Homo sapiens) (Q14012 whole entry, looked up): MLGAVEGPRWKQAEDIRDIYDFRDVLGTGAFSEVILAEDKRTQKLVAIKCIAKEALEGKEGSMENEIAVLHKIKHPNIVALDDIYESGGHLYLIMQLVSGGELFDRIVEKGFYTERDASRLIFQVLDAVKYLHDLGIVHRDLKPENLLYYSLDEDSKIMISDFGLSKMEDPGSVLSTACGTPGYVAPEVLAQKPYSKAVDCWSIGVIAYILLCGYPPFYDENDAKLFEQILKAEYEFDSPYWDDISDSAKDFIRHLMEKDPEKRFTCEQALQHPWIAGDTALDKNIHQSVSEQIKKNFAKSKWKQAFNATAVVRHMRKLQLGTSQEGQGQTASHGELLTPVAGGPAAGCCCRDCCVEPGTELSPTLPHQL

[23] = molecular target: SRSF protein kinase 1 (Homo sapiens) (UniProt Q96SB4); assay: Inhibition of SRPK1 (unknown origin) assessed as residual enzyme activity at 1 uM relative to untreated control
[24] = molecular target: Serine/threonine-protein kinase Sgk1 (Homo sapiens) (UniProt O00141); assay: Inhibition of SGK1 (unknown origin) assessed as residual enzyme activity at 1 uM relative to untreated control
[25] = molecular target: Casein kinase I isoform delta (Homo sapiens) (UniProt P48730); assay: Inhibition of CK1delta (unknown origin) assessed as residual enzyme activity at 1 uM relative to untreated control
Chain of Casein kinase I isoform delta (Homo sapiens) (P48730 whole entry, looked up, canonical isoform): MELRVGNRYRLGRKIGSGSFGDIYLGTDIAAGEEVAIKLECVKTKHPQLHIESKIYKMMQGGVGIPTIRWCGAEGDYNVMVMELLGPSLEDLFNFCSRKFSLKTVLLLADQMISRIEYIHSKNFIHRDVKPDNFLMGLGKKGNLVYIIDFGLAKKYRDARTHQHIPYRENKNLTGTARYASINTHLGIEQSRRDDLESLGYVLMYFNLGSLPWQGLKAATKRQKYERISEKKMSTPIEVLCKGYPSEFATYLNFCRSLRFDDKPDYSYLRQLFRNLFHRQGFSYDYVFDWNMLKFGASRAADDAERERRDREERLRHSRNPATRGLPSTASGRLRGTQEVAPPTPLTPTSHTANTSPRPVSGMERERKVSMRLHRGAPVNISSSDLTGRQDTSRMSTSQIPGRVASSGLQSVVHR

[26] = molecular target: Serine/threonine-protein kinase TBK1 (Homo sapiens) (UniProt Q9UHD2); assay: Inhibition of TBK1 (unknown origin) assessed as residual enzyme activity at 1 uM relative to untreated control
[27] = molecular target: Tyrosine-protein kinase BTK (Homo sapiens) (UniProt Q06187); assay: Inhibition of BTK (unknown origin) assessed as residual enzyme activity at 1 uM relative to untreated control
[28] = molecular target: T1, TGF-beta receptor type-1 (Homo sapiens); assay: Inhibition of human ALK5 expressed in Sf9 insect cells assessed as residual enzyme activity at 1 uM using casein as substrate in presence of [gamma-33P]ATP relative to untreated control
[29] = molecular target: Receptor-interacting serine/threonine-protein kinase 2 (Homo sapiens) (UniProt O43353); assay: Inhibition of RIPK2 (unknown origin) assessed as residual enzyme activity at 1 uM relative to untreated control
Chain of Receptor-interacting serine/threonine-protein kinase 2 (Homo sapiens) (O43353 whole entry): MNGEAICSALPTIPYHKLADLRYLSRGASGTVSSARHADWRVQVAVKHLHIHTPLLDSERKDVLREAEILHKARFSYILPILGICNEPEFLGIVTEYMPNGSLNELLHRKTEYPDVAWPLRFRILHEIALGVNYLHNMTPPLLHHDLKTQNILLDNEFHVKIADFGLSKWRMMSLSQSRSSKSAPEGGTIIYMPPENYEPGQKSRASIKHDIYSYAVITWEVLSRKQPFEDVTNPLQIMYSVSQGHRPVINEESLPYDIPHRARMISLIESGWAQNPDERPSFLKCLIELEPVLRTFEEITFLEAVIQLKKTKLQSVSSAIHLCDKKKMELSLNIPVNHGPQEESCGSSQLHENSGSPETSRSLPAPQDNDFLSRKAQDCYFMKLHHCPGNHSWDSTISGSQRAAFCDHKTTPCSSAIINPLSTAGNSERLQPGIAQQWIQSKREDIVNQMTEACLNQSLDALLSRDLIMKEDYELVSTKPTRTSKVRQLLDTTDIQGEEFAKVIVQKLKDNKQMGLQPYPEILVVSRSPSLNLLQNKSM

Work on `Cc1cccc(-c2nn3c(c2-c2ccc(O)cc2)C(C)C(C)(C)C3)n1` (centres undefined) yielded an Activity [1] greater than 80%, an inhibition [2] of 100% and an Activity [3] greater than 80%. The inhibition [4] was “Active”, the Activity [5] was greater than 80% and the Activity [6] was greater than 80%. The Activity [7] was greater than 80%, the Activity [8] was greater than 80% and the IC50 [9] was greater than 100 µM. It also gave an Activity [10] greater than 80%, an Activity [11] greater than 80% and an Activity [12] greater than 80%. For the same compound, the Activity [13] was greater than 80%, the Activity [14] was greater than 80% and the Activity [15] was greater than 80%. It also gave an Activity [16] greater than 80%, an IC50 [17] greater than 100 µM and an Activity [18] greater than 80%. For the same compound, the Activity [19] was 12%, the Activity [20] was greater than 80% and the Activity [21] was greater than 80%. For the same compound, the Activity [22] was greater than 80%, the Activity [23] was greater than 80% and the Activity [24] was 60 to 80%. The Activity [25] was 34%, the Activity [26] was greater than 80% and the Activity [27] was greater than 80%. The Activity [28] was 6% and the Activity [29] was 11%.

Reference: ChEMBL document CHEMBL4270481, “ALK5 kinase inhibitory activity and synthesis of 2,3,4-substituted 5,5-dimethyl-5,6-dihydro-4H-pyrrolo[1,2-b]pyrazoles” (Eur J Med Chem, 2017)
